Several values for one entry are separate records, joined by “and”; a condition that tells them apart may be missing. Equal values may be shown once.

Holding throughout (type): physicochemical
Data set [1] is described as follows: Solubility of photochromic compound in polymerizable compounds. More on the design: key: 1: No haze is seen when checked under transmission of light, and the sample is completely dissolved.; 2: A very thin haze is seen to the extent that it can be seen under transmission of light.; 3: A thin haze that can be seen under transmission of light is seen.; 4: A haze can be seen even without transmission of light. As to conditions: 35 µmol/g in radical polymerizable compound composition of Example 21, 65 to 70°C; for Dissolution for 15 min / Dissolution for 30 min / Dissolution for 45 min: stirring and ultrasonic irradiation; for Dissolution for 1 hour: head reads 60 min in Tables 8 to 14. An outline of the steps: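 Photochromic compound was added to the radical polymerizable portion of a curable composition and dissolved at 65 to 70°C under stirring and intermittent ultrasonication. The sample was inspected visually by transmitted light every 15 minutes up to 1 h and scored 1 (fully dissolved, no haze) to 4 (haze visible without transmitted light). Solubility was ranked by the time taken to reach score 1.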

Data set [2] can be described thus: Photochromic property of binder sheet (photochromic layer made by binder method). As to conditions: for Residual ratio: A96/A0 x 100 after 96 hours accelerated degradation, xenon weather meter X25; for Color developing density at 23°C: absorbance difference after 240 seconds irradiation at the maximum absorption wavelength of the same line. The protocol: (§1) The resulting photochromic laminates were evaluated by the below-mentioned methods. • (1) Photochromic property • [1] Maximum absorption wavelength (λmax): This is the maximum absorption wavelength after color development determined by a spectrophotometer manufactured by Otsuka Electronics Co., Ltd. (instantaneous multichannel photo detector MCPD3000) and was used as an index of a color tone upon color development. • [2] Color developing density at 23°C (A23): This is a difference between an absorbance {ε(240)} after irradiation with light at 23°C for 240 seconds and an absorbance ε(0) when not irradiated with light at the maximum absorption wavelength and was used as an index of a color developing density. The higher this value is, the better a photochromic property is. • [3] Color fading half-life at 23°C [τ1/2 (sec).)]: This is a period of time taken by an absorbance at the maximum absorption wavelength of a sample to decrease to 1/2 of {ε(240)-ε(0)} when irradiation is stopped after irradiation with light at 23°C for 240 seconds, and was used as an index of a color fading rate. The shorter this period of time is, the faster the color fading rate is. • [4] Residual ratio (A96/A0 x 100): The resulting photochromic plastic lens was subjected to accelerated degradation for 96 hours using a xenon weather meter X25 manufactured by Suga Test Instruments Co., Ltd. Color developing densities were then evaluated before and after a test, and a color developing density before the test (A0) and a color developing density after the test (A96) were measured. A ratio (A96/A0) was determined as a residual ratio and was used as an index of color development durability. The higher the residual ratio is, the more durable the color development is.
A binder sheet was produced as follows. The binder sheet was made by laminating a first optical sheet, a first adhesive layer, a photochromic layer, a second adhesive layer, and a second optical sheet in this order. A polycarbonate sheet with a thickness of 400 µm was used as the first optical sheet and the second optical sheet.
A 2 L four-necked flask equipped with a stirring blade, a condense tube, a thermometer, and a nitrogen gas inlet tube was charged with 315 parts by mass of polycarbonate diol with a number average molecular weight of 1000, 100 parts by mass of isophorone diisocyanate, and 72 parts by mass of toluene and reacted under a nitrogen atmosphere at 100°C for 7 hours. Thus, a urethane prepolymer with a terminal isocyanate group was synthesized. After the reaction of the above-mentioned urethane prepolymer was completed, the resulting reaction liquid was cooled to about 0°C and dissolved in 205 parts by mass of tertiary-butyl alcohol and 382 parts by mass of diethyl ketone, and then a temperature of the resulting liquid was kept at 0°C. Next, a mixed solution of 21.3 parts by mass of bis-(4-aminocyclohexyl)methane serving as a chain extender and 20 parts by mass of diethyl ketone was added dropwise thereto within 30 minutes and reacted at 0°C for 1 hour. Then, 8.1 parts by mass of 1,2,2,6,6-pentamethyl-4-aminopiperidine was added dropwise thereto and reacted at 0°C for 1 hour to obtain a solution of a terminal non-reactive urethane urea resin in diethylketone.
One hundred parts by mass of the resulting solution of a terminal non-reactive urethane urea resin, 6.3 parts by mass of Example 1 (a photochromic compound represented by Formula (1-7), an isomer mixture of 4,4'-methylenebis(cyclohexylisocyanate) (polyisocyanate compound)), 0.4 parts by mass of ethylenebis(oxyethylene) bis[3-(5-tert-butyl-4-hydroxy-m-tolyl) propionate] serving as an antioxidant, and 0.06 parts by mass of L-7001 manufactured by DuPont Toray Specialty Materials K.K. serving as a surfactant were added and stirred and mixed at room temperature to obtain a composition for forming a photochromic layer. […]

Data set [3] is described as follows: Photochromic property of photochromic cured product made by kneading method. As to conditions: for Residual ratio: A96/A0 x 100 after 96 hours accelerated degradation, xenon weather meter X25; for Color developing density at 23°C: absorbance difference after 240 seconds irradiation at the maximum absorption wavelength of the same line. The protocol: as §1
First, the photochromic compound obtained in Example 1, an additive, and a polymerizable compound were mixed to obtain a curable composition. The polymerizable compound was a combination of the following polymerizable monomers: • · 1,3-Bis(isocyanatomethyl)cyclohexane: 36.7 parts by mass • · Pentaerythritol tetrakis(3-mercaptopropionate): 39.4 parts by mass • · Polyoxyethylene polyoxypropylene lauryl ether (WONDERSURF 140 manufactured by AOKI OIL INDUSTRIAL Co., Ltd.): 17.4 parts by mass • · 1-Decanethiol: 2.8 parts by mass • · RX-1 prepared by the method described in Patent Document 14: 3.8 parts by mass
Note that, in the curable composition, the photochromic compound was added in an amount of 0.106 mmol taking a total amount of the polymerizable monomers as 100 g.
The following additives were used: • · Dimethyltin dichloride: 0.05 parts by mass • · Irganox 245: 0.1 parts by mass • · 2-Ethylhexyl […]: 0.6 parts by mass
After the thus-prepared curable composition was thoroughly defoamed, it was poured into a glass mold with a gap of 1 mm and polymerized by casting polymerization. […] After the polymerization, the resulting cured product was removed from the glass mold to obtain a photochromic cured product with a thickness of 1 mm. The resulting photochromic cured product was evaluated in the same manner as for Example 23.
Photochromic cured products were produced using the photochromic compounds shown in Table 4 in the same manner as in Example 50.

Regarding `CCCCC1(CCC)c2ccccc2-c2c1c1c(c3cc(OC)c(N4CCOCC4)cc23)OC(c2ccc(OC)cc2)(c2ccc(OC)cc2)C=C1` (stereo not shown) [Formula (6-2)], in data set [1], the “Dissolution for 15 min” value came out at 4, the “Dissolution for 30 min” value worked out at 2, the “Dissolution for 45 min” value is given as 1 and the “Dissolution for 1 hour” value was determined as 1. In addition, the Residual ratio in data set [2] is 75% and 72%.

Consider `CCC1(C)c2ccccc2-c2c1c1c(c3cc(OC)c(N(C)c4ccccc4)cc23)OC(c2ccc(OC)cc2)(c2ccc(OC)cc2)C=C1` (stereo not shown) [Formula (9-1)], for which, in data set [1], the “Dissolution for 15 min” value was found to be 4, the “Dissolution for 30 min” value was found to be 2, the “Dissolution for 45 min” value was 2 and the “Dissolution for 1 hour” value is on record as 1. For the same molecule, in data set [3], the Residual ratio is reported as 79% and the “Color developing density at 23°C” value is 1.20 -. Also, in data set [2], the Residual ratio worked out at 93% and the “Color developing density at 23°C” value is listed as 1.19 -.

As for `CCCC1(CC)c2ccccc2-c2c1c1c(c3cc(OC)c(N4CCOCC4)cc23)OC(c2ccc(OC)cc2)(c2ccc(OC)cc2)C=C1` (stereo not shown) [Formula (14-1)], in data set [1], the “Dissolution for 15 min” value was 4, the “Dissolution for 30 min” value came to 2, the “Dissolution for 45 min” value is 1 and the “Dissolution for 1 hour” value was determined as 1. Further, the Residual ratio in data set [3] was 63% and 64%. For the same molecule, in data set [2], the Residual ratio was found to be 75%.

Consider `CCCCCCC1(CC)c2ccccc2-c2c1c1c(c3cc(OC)c(N4CCOCC4)cc23)OC(c2ccc(OC)cc2)(c2ccc(OC)cc2)C=C1` (stereo not shown) [Formula (18-1)], for which, in data set [1], the “Dissolution for 15 min” value is 3, the “Dissolution for 30 min” value was determined as 2, the “Dissolution for 45 min” value is given as 1 and the “Dissolution for 1 hour” value came out at 1. Also, the Residual ratio in data set [3] was 60% and 61%. Moreover, the Residual ratio in data set [2] is 71% and 74%.

Turning to `CCCCCCCCCCCC1(C)c2ccccc2-c2c1c1c(c3cc(OC)c(N4CCOCC4)cc23)OC(c2ccc(OC)cc2)(c2ccc(OC)cc2)C=C1` (stereo not shown) [Formula (19-1)], in data set [1], the “Dissolution for 15 min” value is on record as 2, the “Dissolution for 30 min” value was determined as 1, the “Dissolution for 45 min” value is 1 and the “Dissolution for 1 hour” value is given as 1. The Residual ratio in data set [3] was 52% and 55%. Further, the Residual ratio in data set [2] was 62% and 66%.

As to `COc1ccc(C2(c3ccc(OC)cc3)C=Cc3c4c(c5cc(N6CCOCC6)c(OC)cc5c3O2)-c2ccccc2C4(C)C)cc1` [Formula (A), reference compound], in data set [1], the “Dissolution for 15 min” value stood at 4, the “Dissolution for 30 min” value stood at 3, the “Dissolution for 45 min” value is on record as 3 and the “Dissolution for 1 hour” value stood at 3. Besides, in data set [3], the Residual ratio was 54% and 56%; the “Color developing density at 23°C” value is 1.68 - and 0.85 -. The Residual ratio in data set [2] was 63% and 65%.

For `CCC1(OC)c2ccccc2-c2c1c1c(c3cc(OC)c(N4CCOCC4)cc23)OC(c2ccc(OC)cc2)(c2ccc(OC)cc2)C=C1` (stereo not shown) [Formula (B), reference compound], in data set [1], the “Dissolution for 15 min” value came to 4, the “Dissolution for 30 min” value amounted to 3, the “Dissolution for 45 min” value is listed as 1 and the “Dissolution for 1 hour” value was 1. Besides, in data set [3], the Residual ratio is 40% and 42%; the “Color developing density at 23°C” value was 1.32 - and 0.69 -. Also, in data set [2], the Residual ratio is 50% and 51%; the “Color developing density at 23°C” value was 1.32 - and 0.71 -.

The values above are taken from patent EP4763837A1, “PHOTOCHROMIC COMPOUND, CURABLE COMPOSITION, OPTICAL ARTICLE, LENS, AND EYEGLASSES” (TOKUYAMA CORPORATION, priority 2023, dated 2025).
